Measurements reported in patent US8946219B2, “Combination therapy with a compound acting as a platelet ADP receptor inhibitor” (Portola Pharmaceuticals, Inc., priority 2007, dated 2015).
Values belong to the molecule of their own block, whether it stands above or below them.

Experiments:
[1] = test system: thrombus formation under arterial shear conditions; assay: Perfusion assay, blood collected in bivalirudin, type III collagen, 1600 s^−1 (Example 8); format: cell-based; settings: bivalirudin alone, 12 μg/mL
Protocol: As an example of additive antithrombotic benefit achieved when Compound A was combined with a direct thrombin inhibitor, such as bivalirudin, in the following assay, blood was collected in 12 μg/mL bivalirudin (standard therapeutic concentration), incubated with various concentrations of Compound A (0.1, 1 or 10 μM) for 20 mins in the presence of rhodamine 6G (which fluorescently labels platelets), followed by perfusion through a glass capillary coated with collagen (type III) at a fixed shear rate (1600 s^−1). […] FIG. 7 illustrates the combined antithrombotic benefit achieved by the combination of Compound A and bivalirudin.

[2] = test system: thrombin generation in platelet rich plasma; assay: Platelet-initiated thrombin generation assay (Example 5); format: cell-based, human
Protocol: Whole blood from healthy volunteer donors was collected by venipuncture and drawn into 3.2% trisodium citrate (Vacutainer, Becton Dickinson) for anticoagulation. Platelet rich plasma was prepared by centrifugation and the platelet count was adjusted to 150,000/μL. In a 96 well plate, platelets were activated by addition of convulxin (200 ng/mL) and incubation at 37° C. for 3 mins. Subsequent to platelet activation, thrombin generation was initiated by addition of 23 pM tissue factor (Innovin, Dade Behring) and 15 mM calcium. Thrombin activity was monitored by cleavage of the specific fluorogenic substrate (Z-gly-gly-arg-AMC, Bachem) in a fluorescence plate reader.

[3] = test system: thrombosis on mouse mesenteric arteries; assay: Mouse mesenteric artery thrombosis model, 5% FeCl3 (Example 13, present tense); format: in vivo, C57B16J mice; settings: for antithrombotic activity in the intravital microscopy thrombosis model in mice: other factor Xa inhibitors, expected
Protocol: Thrombosis on mouse mesenteric arteries (shear rate 1000-1300 s^−1) is performed and recorded as previously described with minor modifications, as described in Andre, P. et al., Anticoagulants (thrombin inhibitors) and aspirin synergize with P2Y12 receptor antagonism in thrombosis. Circulation, 2003, 108(21):2697-703. Platelets are labeled in situ using rhodamine 6G (0.2 mg/mL) administered through the tail vein 10 mins before visualization of the arteries. Vessel-wall injury is triggered by a 1×1-mm filter paper saturated with a 5% FeCl3 solution. After 5 minutes, the filter paper is removed and mesenteric arteries rinsed with warmed saline (37° C.). Platelet vessel-wall interactions are recorded for 40 additional mins or until full occlusion occurs and persists for more than 40 seconds. C57B16J mice are orally gavaged with vehicle control, Compound A (7.5, 20, 60 mg/kg) or betrixaban (4, 40, 400 mg/kg) two hours prior to vascular injury. Thrombosis is analyzed in real time using Simple PCI software, as described in Andre, P. et al., P2Y12 regulates platelet adhesion/activation, thrombus growth, and thrombus stability in injured arteries. J Clin Invest, 2003, 112(3):398-406. The fluorescence intensity is recorded at a rate of 2 Hz for 40 minutes and plotted over time. Time to occlusion (cessation of blood flow) is analyzed.

[4] = test system: thrombosis on mouse mesenteric arteries; assay: Mouse mesenteric artery thrombosis model, intravital microscopy, 10% FeCl3 (Example 14); format: in vivo, C57B16J mice
Protocol: Thrombosis on mouse mesenteric arteries (shear rate 1000-1300 s^−1) was performed and recorded as previously described with minor modifications. (Andre, P., et al., Anticoagulants (thrombin inhibitors) and aspirin synergize with P2Y12 receptor antagonism in thrombosis. Circulation, 2003. 108(21): p. 2697-703.) Platelets were labeled in situ using rhodamine 6G (0.2 mg/mL) administered through the tail vein 10 min before visualization of the arteries. Vessel-wall injury was triggered by a 1×1-mm filter paper saturated with a 10% FeCl3 solution. After 5 minutes, the filter paper was removed and mesenteric arteries rinsed with warmed saline (37° C.). Platelet vessel-wall interactions were recorded for 40 additional min or until full occlusion occurred and persisted for more than 40 seconds. C57B16J mice were orally gavaged with vehicle control, compound A (0.83, 2.5, 7.5, 20, 60 mg/kg) or betrixaban (2, 4, 10 mg/kg) two hours prior to vascular injury. Thrombosis was analyzed in real time using Simple PCI software. (Andre, P., et al., P2Y12 regulates platelet adhesion/activation, thrombus growth, and thrombus stability in injured arteries. J Clin Invest, 2003. 112(3): p. 398-406.) The fluorescence intensity was recorded at a rate of 2 Hz for 40 minutes and plotted over time. Time to occlusion (cessation of blood flow) is analyzed.
Plasma concentrations of Compound A and betrixaban were determined on blood draw collected 2 min post-occlusion or 42 min after start of vascular injury.

[5] = test system: ADP induced platelet aggregation in human platelet rich plasma; assay: ADP induced platelet aggregation; format: cell-based
[6] = test system: platelet thrombus formation on collagen-coated capillary (type I collagen); assay: Perfusion assay, non-anticoagulated whole blood, type I collagen, 1000 s^−1 (Example 6); format: cell-based, human; settings: Compound A alone at 10 μM
Protocol: After perfusion the size of the platelet thrombus was measured by fluorescence.

[7] = test system: whole human blood perfused over type III collagen (thrombus formation); assay: Real time perfusion chamber thrombosis assay (Example 3); format: cell-based; settings: read-out: inhibition of thrombosis
Description: The real time perfusion chamber assay couples the features of animal thrombosis models that use intravital microscopy to those of perfusion chamber technology in order to produce an assay suited to monitoring drug activity in clinical trials. This assay perfuses whole blood through capillaries at arterial rates of shear, exposing the blood to thrombogenic type III collagen. Platelets are labeled with a fluorescent dye (rhodamine 6 G) prior to perfusion such that analysis of the thrombus deposition can be performed by measurement of fluorescence intensity inside the perfusion chamber. Quantification is performed by analysis of the thrombus height (fluorescence intensity (number of pixels)/total area (μm^2)).

[8] = betrixaban 10 mg/kg, oral gavage

Molecule: bivalirudin
inhibition of the thrombotic process [1]: did not significantly inhibit the thrombotic process

Molecule: COc1ccc(NC(=O)c2ccc(C(=N)N(C)C)cc2)c(C(=O)Nc2ccc(Cl)cn2)c1 [betrixaban, [2-({4-[(dimethylamino)iminomethyl]phenyl}carbonylamino)-5-methoxyphenyl]-N-(5-chloro(2-pyridyl))carboxamide]
concentration adequate for equivalent inhibition of thrombin generation as a therapeutic anticoagulant (Pentasaccharide fondaparinux) [2]: 31.25 nM
non-effective doses ([3]; betrixaban): below 100 ng/mL
time for appearance of first thrombus [4, 8]: significantly delayed
time to occlusion [4, 8]: significantly delayed
effect in the thrombosis model ([4]; betrixaban 2 and 4 mg/kg, oral gavage): non-effective

Molecule: O=C(NC[C@H]1CN(c2ccc(N3CCOCC3=O)cc2)C(=O)O1)c1ccc(Cl)s1 [rivaroxaban, (5S)-5-chloro-N-((2-oxo-3-(4-(3-oxomorpholino)phenyl)oxazolidin-5-yl)methyl)thiophene-2-carboxamide]
antithrombotic activity in the intravital microscopy thrombosis model in mice [3]: significant antithrombotic activity

Molecule: COc1ccc(-n2nc(C(N)=O)c3c2C(=O)N(c2ccc(N4CCCCC4=O)cc2)CC3)cc1 [apixaban, 1-(4-methoxyphenyl)-7-oxo-6-(4-(2-oxopiperidin-1-yl)phenyl)-3a,4,5,6,7,7a-hexahydro-1H-pyrazolo[3,4-c]pyridine-3-carboxamide]
antithrombotic activity in the intravital microscopy thrombosis model in mice [3]: significant antithrombotic activity

IC50 ([5]; Platelet, platelets derived from human donors, n=19, read-out: half maximal inhibition of ADP induced platelet aggregation): 4.7 ± 5.1 µM
Molecule: CNc1cc2[nH]c(=O)n(-c3ccc(NC(=O)NS(=O)(=O)c4ccc(Cl)s4)cc3)c(=O)c2cc1F [Compound A]
concentration capable of maximal inhibition of platelet aggregation [5]: 10 µM
platelet thrombus size [6]: no significant effect
plasma concentration that did not prevent occlusion ([4]; PK/PD, FIG. 13): below 1 μg/mL
plasma concentrations of non-effective doses ([4]; PK/PD, FIG. 13): below 200 ng/mL
plasma levels that prevented vascular occlusion ([4]; PK/PD, FIG. 13): > 1 µg/mL
inhibition at 1.1 µM [7]: 23%
